From ChEMBL document CHEMBL1129105, “Synthesis and biological evaluation of N-(1-aziridino)-6-fluoro-quinolone-3-carboxylic acids” (1996)
Converted amounts (≈) assume the structure as drawn.

Legend:
[1] = system: Escherichia coli; experiment: In vitro antibacterial activity of compound was measured against gram negative Escherichia coli 6R; assay type: functional
[2] = system: Streptococcus pneumoniae; experiment: In vitro antibacterial activity of compound was measured against gram positive Streptococcus pneumoniae; assay type: functional
[3] = system: Pseudomonas aeruginosa; experiment: In vitro antibacterial activity of compound was measured against gram negative Pseudomonas pyocyanea NCTC 10490; assay type: functional, pseudomona pyocyanea
[4] = system: Streptococcus pyogenes; experiment: In vitro antibacterial activity of compound was measured against gram positive Streptococcus pyogenes A 115 ROBB; assay type: functional
[5] = system: Streptococcus pyogenes; experiment: In vitro antibacterial activity of compound was measured against gram positive Streptococcus pyogenes A 118; assay type: functional
[6] = system: Bacillus subtilis; experiment: In vitro antibacterial activity of compound was measured against gram positive Bacillus subtilis ATCC 6633; assay type: functional
[7] = system: Mycobacterium tuberculosis; experiment: In vitro antibacterial activity of compound was measured against gram positive Mycobacterium tuberculosis H37Rv (human); assay type: functional
[8] = system: Alcaligenes faecalis; experiment: In vitro antibacterial activity of compound was measured against gram negative Alcaligenes faecalis 140001; assay type: functional
[9] = system: Proteus inconstans; experiment: In vitro antibacterial activity of compound was measured against gram negative Proteus inconstans NCTC 8055; assay type: functional; conditions: Providencia alcalifaciens
[10] = system: Staphylococcus aureus; experiment: In vitro antibacterial activity of compound was measured against gram positive Staphylococcus aureus SMITH; assay type: functional
[11] = system: Clostridium perfringens; experiment: In vitro antibacterial activity of compound was measured against gram positive Clostridium perfringens 70500; assay type: functional
[12] = system: Shigella sonnei; experiment: In vitro antibacterial activity of compound was measured against gram negative Shigella sonnei; assay type: functional
[13] = system: Escherichia coli; experiment: In vitro antibacterial activity of compound was measured against gram negative Escherichia coli K12; assay type: functional
[14] = system: Proteus vulgaris; experiment: In vitro antibacterial activity of compound was measured against gram negative Proteus vulgaris XL; assay type: functional
[15] = system: Salmonella typhimurium; experiment: In vitro antibacterial activity of compound was measured against gram negative Salmonella Typhimurium 51; assay type: functional, Salmonella enterica subsp. enterica serovar Typhimurium; conditions: Salmonella enterica
[16] = system: Mycobacterium tuberculosis; experiment: In vitro antibacterial activity of compound was measured against gram positive Mycobacterium tuberculosis Ravenel(bovin); assay type: functional
[17] = system: Enterococcus faecalis; experiment: In vitro antibacterial activity of compound was measured against gram positive Streptococcus faecalis; assay type: functional
[18] = system: Staphylococcus aureus; experiment: In vitro antibacterial activity of compound was measured against gram positive Staphylococcus aureus 1110 pen.rez.; assay type: functional
[19] = system: Bordetella bronchiseptica; experiment: In vitro antibacterial activity of compound was measured against gram negative Bordetella bronchiseptica ATCC 4617; assay type: functional
[20] = system: Klebsiella pneumoniae; experiment: In vitro antibacterial activity of compound was measured against gram negative Klebsiella pneumoniae ATCC 10031; assay type: functional
[21] = system: Bacteroides fragilis; experiment: In vitro antibacterial activity of compound was measured against gram negative Bacteroides fragilis ATCC 25285; assay type: functional
[22] = system: Serratia marcescens; experiment: In vitro antibacterial activity of compound was measured against gram negative Serratia marcescens; assay type: functional
[23] = system: Acinetobacter calcoaceticus subsp. anitratus; experiment: In vitro antibacterial activity of compound was measured against gram negative Acinetobacter anitratus 150001; assay type: functional

SMILES | MIC [1] [µg/mL] | MIC [2] [µg/mL] | MIC [4] [µg/mL] | MIC [5] [µg/mL] | MIC [6] [µg/mL] | MIC [7] [µg/mL] | MIC [8] [µg/mL] | MIC [9] [µg/mL] | MIC [10] [µg/mL] | MIC [12] [µg/mL] | MIC [14] [µg/mL] | MIC [15] [µg/mL] | MIC [16] [µg/mL] | MIC [17] [µg/mL] | MIC [18] [µg/mL] | MIC [19] [µg/mL] | MIC [20] [µg/mL] | MIC [21] [µg/mL] | MIC [22] [µg/mL] | MIC [23] [µg/mL] | also measured
CN1CCN(c2c(F)cc3c(=O)c(C(=O)O)cn(N4CC4c4cccc(C(F)(F)F)c4)c3c2F)CC1 (stereo unspecified) | 100 (≈ 197 µM) | 25 (≈ 49.2 µM) | 100 (≈ 197 µM) | 100 (≈ 197 µM) | 50 (≈ 98.3 µM) | 100 (≈ 197 µM) | 100 (≈ 197 µM) | 100 (≈ 197 µM) | 25 (≈ 49.2 µM) | 12.5 (≈ 24.6 µM) | 100 (≈ 197 µM) | 50 (≈ 98.3 µM) | 50 (≈ 98.3 µM) | 50 (≈ 98.3 µM) | 50 (≈ 98.3 µM) | 100 (≈ 197 µM) | 12.5 (≈ 24.6 µM) | 50 (≈ 98.3 µM) | 100 (≈ 197 µM) | 100 (≈ 197 µM) | MIC [3]: 100 µg/mL (≈ 197 µM); MIC [11]: 100 µg/mL (≈ 197 µM); MIC [13]: 50 µg/mL (≈ 98.3 µM)
CN1CCN(c2cc3c(cc2F)c(=O)c(C(=O)O)cn3N2CC2c2cccc(C(F)(F)F)c2)CC1 (stereo unspecified) | 100 (≈ 204 µM) | 12.5 (≈ 25.5 µM) | 50 (≈ 102 µM) | 25 (≈ 51 µM) | 10 (≈ 20.4 µM) | 12.5 (≈ 25.5 µM) | 100 (≈ 204 µM) | 100 (≈ 204 µM) | 25 (≈ 51 µM) | 25 (≈ 51 µM) | 100 (≈ 204 µM) | 100 (≈ 204 µM) | 100 (≈ 204 µM) | 25 (≈ 51 µM) | 25 (≈ 51 µM) | 50 (≈ 102 µM) | 12.5 (≈ 25.5 µM) | 50 (≈ 102 µM) | 100 (≈ 204 µM) | 100 (≈ 204 µM) | MIC [3]: 100 µg/mL (≈ 204 µM); MIC [11]: 12.5 µg/mL (≈ 25.5 µM); MIC [13]: 100 µg/mL (≈ 204 µM)
CN1CCN(c2c(F)cc3c(=O)c(C(=O)O)cn(N4CC4c4ccccn4)c3c2F)CC1 (stereo unspecified) | > 100 | 100 (≈ 227 µM) | > 100 | > 100 | > 100 | 100 (≈ 227 µM) | > 100 | 50 (≈ 113 µM) | > 100 | 6.2 (≈ 14 µM) | 25 (≈ 56.6 µM) | 25 (≈ 56.6 µM) | 50 (≈ 113 µM) | > 100 | > 100 | > 100 | 12.5 (≈ 28.3 µM) | > 100 | 25 (≈ 56.6 µM) | > 100 | MIC [3]: > 100 µg/mL; MIC [11]: 100 µg/mL (≈ 227 µM); MIC [13]: 50 µg/mL (≈ 113 µM)
CN1CCN(c2cc3c(cc2F)c(=O)c(C(=O)O)cn3N2CC2c2ccccc2)CC1 (stereo unspecified) | 100 (≈ 237 µM) | 5 (≈ 11.8 µM) | 10 (≈ 23.7 µM) | 10 (≈ 23.7 µM) | 6.2 (≈ 14.7 µM) | 6.2 (≈ 14.7 µM) | 100 (≈ 237 µM) | 100 (≈ 237 µM) | 12.5 (≈ 29.6 µM) | 6.2 (≈ 14.7 µM) | 50 (≈ 118 µM) | 50 (≈ 118 µM) | 3.1 (≈ 7.34 µM) | 25 (≈ 59.2 µM) | 25 (≈ 59.2 µM) | 6.2 (≈ 14.7 µM) | 3.1 (≈ 7.34 µM) | 6.2 (≈ 14.7 µM) | 100 (≈ 237 µM) | 50 (≈ 118 µM) | MIC [3]: 100 µg/mL (≈ 237 µM); MIC [11]: 6.2 µg/mL (≈ 14.7 µM); MIC [13]: 50 µg/mL (≈ 118 µM)
O=C(O)c1cn(C2CC2)c2cc(N3CCNCC3)c(F)cc2c1=O [CIPROFLOXACIN] |  | 1 (≈ 3.02 µM) | 1 (≈ 3.02 µM) | 1 (≈ 3.02 µM) | 0.03 (≈ 0.0905 µM) | 0.2 (≈ 0.604 µM) | 1 (≈ 3.02 µM) | 0.03 (≈ 0.0905 µM) | 0.12 (≈ 0.362 µM) | 0.015 (≈ 0.0453 µM) | 0.008 (≈ 0.0241 µM) | 0.015 (≈ 0.0453 µM) | 0.05 (≈ 0.151 µM) | 1 (≈ 3.02 µM) | 0.25 (≈ 0.754 µM) | 0.25 (≈ 0.754 µM) | 0.008 (≈ 0.0241 µM) | 6.2 (≈ 18.7 µM) | 0.03 (≈ 0.0905 µM) | 0.25 (≈ 0.754 µM) | 
